Earlier results in US20210198302A1, “OLIGOSACCHARIDE COMPOSITIONS AND METHODS OF USE THEREOF FOR REDUCING AMMONIA LEVELS” (Kaleido Biosciences, Inc., priority 2018, published 2021).

Tested on: OHE patients
Settings: administered in combination with lactulose

SMILES: CO[C@H]1/C=C/O[C@@]2(C)Oc3c(C)c(O)c4c(O)c(c5c(nc6cc(C)ccn65)c4c3C2=O)NC(=O)/C(C)=C\C=C\[C@H](C)[C@H](O)[C@@H](C)[C@@H](O)[C@@H](C)[C@H](OC(C)=O)[C@@H]1C [rifaximin]
- reduction of episodes of OHE: approximately 50%
